Numbered stars: 1 amine (or outer) side, 2 acyl side, 3 side chain; on linkers, the order of the positions; unused ones are H or OH. Bridge positions count the residues as written; N and C are the ends. Square brackets hold non-standard residues; d marks the D form. Side chains are listed from the residue outwards. Peptide text beside a SMILES is read from it. * marks the point of attachment. ξ: configuration not given here. TBMB(SCH2CH2NH-DOTA) = O=C(O)CN1CCN(CC(=O)O)CCN(CC(=O)NCCSCc2cc(C[*:1])cc(C[*:2])c2)CCN(CC(=O)O)CC1; NH(CH2)2O(CH2)2NHDOTA = O=C(O)CN1CCN(CC(=O)O)CCN(CC(=O)NCCOCCN*)CCN(CC(=O)O)CC1; X4 = O=C(O)CN1CCN(CC(=O)O)CCN(CC(=O)N2CCc3cc(C(=O)*)ccc3C2)CCN(CC(=O)O)CC1; X5 = CCCCCC(=O)N[C@@H](CSCc1cccc(C[*:2])c1)C(=O)N1CCC[C@@H](NC(=O)[*:1])C1; X3 = O=C(O)CN1CCN(CC(=O)O)CCN(CC(=O)NCCOCCOCCOCCN*)CCN(CC(=O)O)CC1; DOTA = O=C(O)CN1CCN(CC(=O)O)CCN(CC(=O)*)CCN(CC(=O)O)CC1; Azetidine3carboxylic = O=C(C1CN([*:1])C1)[*:2]; γGlu = O=C(O)[C@H](CCC(=O)[*:2])N[*:1]; βAsp = O=C(O)[C@H](CC(=O)[*:2])N[*:1]; mXylylene = c1cc(C[*:1])cc(C[*:2])c1; ξγGlu = O=C(O)C(CCC(=O)[*:2])N[*:1]; Ethylenediamine = C(CN[*:2])N[*:1]; Cha = N[C@@H](CC1CCCCC1)C(=O)O; Decanoyl = CCCCCCCCCC(=O)*; Octanoyl = CCCCCCCC(=O)*; Hexanoyl = CCCCCC(=O)*; ξP = O=C(O)C1CCCN1; ξC = NC(CS)C(=O)O

The text below walks through data of US20260274894A1, “CYCLIC POLYPEPTIDE COMPOUND AND USE THEREOF” (BIVISION PHARMACEUTICALS, INC., priority 2023, published 2026).

In one assay the target is T1, FAP protein (Homo sapiens, UniProt Q12884).
T1 construct: purchased Sinobiological
T1 sequence (Q12884 1-760): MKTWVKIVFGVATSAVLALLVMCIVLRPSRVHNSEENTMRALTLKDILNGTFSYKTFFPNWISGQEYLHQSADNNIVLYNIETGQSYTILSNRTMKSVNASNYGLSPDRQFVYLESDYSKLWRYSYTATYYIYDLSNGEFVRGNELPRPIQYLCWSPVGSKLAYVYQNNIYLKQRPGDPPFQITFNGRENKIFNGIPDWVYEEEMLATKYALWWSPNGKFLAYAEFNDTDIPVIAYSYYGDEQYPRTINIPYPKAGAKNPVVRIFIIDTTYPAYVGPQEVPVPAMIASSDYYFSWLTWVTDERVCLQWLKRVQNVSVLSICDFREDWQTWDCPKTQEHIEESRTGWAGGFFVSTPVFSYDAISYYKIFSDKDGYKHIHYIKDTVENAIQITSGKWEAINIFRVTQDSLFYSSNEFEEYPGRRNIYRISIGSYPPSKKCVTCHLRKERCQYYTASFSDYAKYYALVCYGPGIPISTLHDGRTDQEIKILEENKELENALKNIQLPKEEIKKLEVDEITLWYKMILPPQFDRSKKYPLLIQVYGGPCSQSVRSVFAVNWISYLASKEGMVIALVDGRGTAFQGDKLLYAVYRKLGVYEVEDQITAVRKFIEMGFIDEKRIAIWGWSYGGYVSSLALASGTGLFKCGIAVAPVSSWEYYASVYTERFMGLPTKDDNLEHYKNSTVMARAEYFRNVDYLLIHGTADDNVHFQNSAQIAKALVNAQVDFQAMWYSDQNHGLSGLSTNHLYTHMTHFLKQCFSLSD
The assay is described as follows: Biacore test of compound affinity to FAP protein. Conditions: Biacore 8K, SA chip, 15° C., 1:1 binding model. As for the experimental part: The Biacore 8K (Cytiva) instrument was used to detect ligand binding of the FAP protein (Sinobiological). FAP protein was captured on the SA chip. […] The sensor surface was conditioned by injecting 1M NaCl three consecutive times in 50 mM NaOH. After each ligand injection, additional cleaning was performed using isopropanol in 1M NaCl and 50 mM NaOH (flow path 1 and 2, flow rate of 10 μL/min, injection time of 60 s). […] The analyte was run under the following conditions: analysis temperature of 15° C., analysis step=all set to LMW kinetics; cycle type=single cycle (contact time of 90 s, dissociation time of 1800 s, flow rate of 30 μL/min, flow channels 1 and 2); channel detection=2-1. Data was evaluated using the Biacore Insight Evaluation Software, and the data were fitted to a 1:1 binding model. The Biacore results are shown in Table 2 below: pKD=−Log KD, where KD is the binding affinity of the compound to the FAP protein as measured by Biacore.
A general note: Surface plasmon resonance follows binding to a sensor surface in real time, without labels.
Consider `CCCCCC(=O)N[C@H]1CSCc2cccc(c2)CSC[C@@H](C(=O)N[C@@H](CCC(=O)NCCNC(=O)CN2CCN(CC(=O)O)CCN(CC(=O)O)CCN(CC(=O)O)CC2)C(=O)O)NC(=O)[C@H](Cc2ccccc2)NC(=O)[C@H](CCC(N)=O)NC(=O)[C@H]([C@@H](C)O)NC(=O)[C@@H]2CCCN2C(=O)C2CN(C2)C1=O` (single isomer, unassigned) [^175Lu-JHDC23], for which the “pKD (FAP)” value is “B (B: 7<pKD<8)”.

Still in this assay, the particulars now being: Biacore 8K, SA chip, 15° C., 1:1 binding model; read-out: pKD (FAP) (converted).
With `CCCCCC(=O)N[C@H]1CSCc2cccc(c2)CSCC(C(=O)N[C@@H](CCC(=O)NCCOCCNC(=O)CN2CCN(CC(=O)O)CCN(CC(=O)O)CCN(CC(=O)O)CC2)C(=O)O)NC(=O)[C@H](CC2CCCCC2)NC(=O)[C@H](CCC(N)=O)NC(=O)[C@H]([C@@H](C)O)NC(=O)C2CCCN2C(=O)C2CN(C2)C1=O` (stereo partly drawn) [JHDC05, Hex[Cys(3MeBn)-hhy39-Pro-Thr-Gln-hhy34-Cys]-Glu-(DAPEG2-DOTA)-OH] (Hexanoyl-C[Azetidine3carboxylic][ξP]TQ[Cha][ξC]E(NH(CH2)2O(CH2)2NHDOTA)-OH; linker 1-7 via mXylylene), the Kd is less than 10 nM.
Turning to `CCCCCC(=O)N[C@H]1CSCc2cccc(c2)CSCC(C(=O)N[C@@H](CCC(=O)NCCOCCNC(=O)CN2CCN(CC(=O)O)CCN(CC(=O)O)CCN(CC(=O)O)CC2)C(=O)O)NC(=O)[C@H](Cc2ccccc2)NC(=O)[C@H](CCC(N)=O)NC(=O)[C@H]([C@@H](C)O)NC(=O)C2CCCN2C(=O)C2CN(C2)C1=O` (stereo partly drawn) [JHDC06, Hex[Cys(3MeBn)-hhy39-Pro-Thr-Gln-Phe-Cys]-Glu-(DAPEG2-DOTA)-OH] (Hexanoyl-C[Azetidine3carboxylic][ξP]TQF[ξC]E(NH(CH2)2O(CH2)2NHDOTA)-OH; linker 1-7 via mXylylene), the Kd is less than 10 nM.
The same measure, in the same setting: next, `CCCCCC(=O)N[C@H]1CSCc2cccc(c2)CSCC(C(=O)N[C@@H](CCCCNC(=O)CN2CCN(CC(=O)O)CCN(CC(=O)O)CCN(CC(=O)O)CC2)C(=O)O)NC(=O)[C@H](Cc2ccccc2)NC(=O)[C@H](CCC(N)=O)NC(=O)[C@H]([C@@H](C)O)NC(=O)C2CCCN2C(=O)N[C@@H]2CCCN(C2)C1=O` (stereo partly drawn) [JHDC07, Hex[Cys(3MeBn)-hhy44(NH)—CO-Pro-Thr-Gln-Phe-Cys]-Lys-(DOTA)-OH] ([ξP]TQF[ξC]K(DOTA)-OH; linker N-5 via X5): 10 to 100 nM; `CCCCCC(=O)N[C@H]1CSCc2cccc(c2)CSCC(C(=O)N[C@@H](CCC(=O)NCCOCCNC(=O)CN2CCN(CC(=O)O)CCN(CC(=O)O)CCN(CC(=O)O)CC2)C(=O)O)NC(=O)[C@H](CC2CCCCC2)NC(=O)CNC(=O)[C@H](CCC(N)=O)NC(=O)[C@H]([C@@H](C)O)NC(=O)C2CCCN2C(=O)C2CN(C2)C1=O` (stereo partly drawn) [JHDC09, Hex[Cys(3MeBn)-hhy39-Pro-Thr-Gln-Gly-hhy34-Cys]-Glu-(DAPEG2-DOTA)-OH] (Hexanoyl-C[Azetidine3carboxylic][ξP]TQG[Cha][ξC]E(NH(CH2)2O(CH2)2NHDOTA)-OH; linker 1-8 via mXylylene): 10 to 100 nM; `CCCCCC(=O)N[C@H]1CSCc2cccc(c2)CSC[C@@H](C(=O)NCCOCCNC(=O)CN2CCN(CC(=O)O)CCN(CC(=O)O)CCN(CC(=O)O)CC2)NC(=O)[C@H](Cc2ccccc2)NC(=O)[C@H](CCC(N)=O)NC(=O)[C@H]([C@@H](C)O)NC(=O)[C@@H]2CCCN2C(=O)C2CN(C2)C1=O` [JHDC10, Hex[Cys(3MeBn)-hhy39-Pro-Thr-Gln-Phe-Cys]-DAPEG2-DOTA] (Hexanoyl-C[Azetidine3carboxylic]PTQFC-{NH(CH2)2O(CH2)2NHDOTA}; linker 1-7 via mXylylene): 10 to 100 nM.
Same read-out and setting: next, `CCCCCC(=O)N[C@H]1CCCCn2cc(nn2)CSC[C@@H](C(=O)N[C@@H](CCCCNC(=O)COCCNC(=O)CN2CCN(CC(=O)O)CCN(CC(=O)O)CCN(CC(=O)O)CC2)C(=O)O)NC(=O)[C@H](Cc2ccccc2)NC(=O)[C@H](CCC(N)=O)NC(=O)[C@H]([C@@H](C)O)NC(=O)[C@@H]2CCCN2C(=O)C2CN(C2)C1=O` [JHDC12, Hex[2AHA(Triazole)-hhy39-Pro-Thr-Gln-Phe-CSMC]-Lys-(AEAA-DOTA)-OH]: 10 to 100 nM; `CCCCCC(=O)N[C@H]1CSCc2cccc(c2)CSCC(C(=O)N[C@@H](CCC(=O)NCCOCCOCCOCCNC(=O)CN2CCN(CC(=O)O)CCN(CC(=O)O)CCN(CC(=O)O)CC2)C(=O)O)NC(=O)[C@H](CC2CCCCC2)NC(=O)[C@H](CCC(N)=O)NC(=O)[C@H]([C@@H](C)O)NC(=O)C2CCCN2C(=O)C2CN(C2)C1=O` (stereo partly drawn) [JHDC16, Hex[Cys(3MeBn)-hhy39-Pro-Thr-Gln-hhy34-Cys]-Glu-(DAPEG4-DOTA)-OH] (Hexanoyl-C[Azetidine3carboxylic][ξP]TQ[Cha][ξC]E(X3)-OH; linker 1-7 via mXylylene): 10 to 100 nM; `CCCCCC(=O)N[C@H]1CSCc2cccc(c2)CSCC(C(=O)N[C@@H](CCC(=O)NCCOCCNC(=O)CN2CCN(CC(=O)O)CCN(CC(=O)O)CCN(CC(=O)O)CC2)C(=O)O)NC(=O)CNC(=O)[C@H](CC2CCCCC2)NC(=O)[C@H](CCC(N)=O)NC(=O)[C@H]([C@@H](C)O)NC(=O)C2CCCN2C(=O)C2CN(C2)C1=O` (stereo partly drawn) [JHDC17, Hex[Cys(3MeBn)-hhy39-Pro-Thr-Gln-hhy34-Gly-Cys]-Glu-(DAPEG2-DOTA)-OH] (Hexanoyl-C[Azetidine3carboxylic][ξP]TQ[Cha]G[ξC]E(NH(CH2)2O(CH2)2NHDOTA)-OH; linker 1-8 via mXylylene): 10 to 100 nM.
The same measure, in the same setting: next, `CCCCCCCCCC(=O)N[C@H]1CSCc2cccc(c2)CSC[C@@H](C(=O)N[C@@H](CCC(=O)N[C@@H](CCCNC(=N)N)C(=O)NCC(=O)N[C@@H](CC(=O)NCCNC(=O)CN2CCN(CC(=O)O)CCN(CC(=O)O)CCN(CC(=O)O)CC2)C(=O)O)C(=O)O)NC(=O)[C@H](Cc2ccccc2)NC(=O)[C@H](CCC(N)=O)NC(=O)[C@H]([C@@H](C)O)NC(=O)[C@@H]2CCCN2C(=O)C2CN(C2)C1=O` [JHDC18, Dec[Cys(3MeBn)-hhy39-Pro-Thr-Gln-Phe-Cys]-Glu-(Arg-Gly-Asp(EDA-DOTA))-OH] (Decanoyl-C[Azetidine3carboxylic]PTQFC[γGlu]RG[βAsp]-{Ethylenediamine-DOTA}; linker 1-7 via mXylylene): 10 to 100 nM; `CCCCCCCCCC(=O)N[C@H]1CSCc2cccc(c2)CSC[C@@H](C(=O)N[C@@H](CCC(=O)N[C@@H](CCCNC(=N)N)C(=O)NCC(=O)N[C@@H](CC(=O)NCCNC(=O)CN2CCN(CC(=O)O)CCN(CC(=O)O)CCN(CC(=O)O)CC2)C(=O)O)C(=O)O)NC(=O)[C@H](CC2CCCCC2)NC(=O)[C@H](CCC(N)=O)NC(=O)[C@H]([C@@H](C)O)NC(=O)[C@@H]2CCCN2C(=O)C2CN(C2)C1=O` [JHDC19, Dec[Cys(3MeBn)-hhy39-Pro-Thr-Gln-hhy34-Cys]-Glu-(Arg-Gly-Asp(EDA-DOTA))-OH] (Decanoyl-C[Azetidine3carboxylic]PTQ[Cha]C[γGlu]RG[βAsp]-{Ethylenediamine-DOTA}; linker 1-7 via mXylylene): 10 to 100 nM; `CCCCCCCC(=O)N[C@H]1CSCc2cc(CSCCNC(=O)CN3CCN(CC(=O)O)CCN(CC(=O)O)CCN(CC(=O)O)CC3)cc(c2)CSC[C@@H](C(=O)NC(CCC(=O)N[C@@H](CCCNC(=N)N)C(=O)NCC(=O)N[C@@H](CC(N)=O)C(=O)O)C(=O)O)NC(=O)[C@H](CC2CCCCC2)NC(=O)[C@H](CCC(N)=O)NC(=O)[C@H]([C@@H](C)O)NC(=O)C2CCCN2C(=O)C2CN(C2)C1=O` (stereo partly drawn) [JHDC21, Oct[Cys(tMeBn-DOTA-AET)-hhy39-Pro-Thr-Gln-hhy34-Cys]-Glu-(Arg-Gly-Asp(NH2))-OH] (Octanoyl-C[Azetidine3carboxylic][ξP]TQ[Cha]C[ξγGlu]RGN-OH; linker 1-7 via TBMB(SCH2CH2NH-DOTA)): 10 to 100 nM.
On to `CCCCCC(=O)N[C@H]1CSCc2cccc(c2)CSCC(C(=O)N[C@@H](CCC(=O)NCCNC(=O)c2ccc3c(c2)CCN(C(=O)CN2CCN(CC(=O)O)CCN(CC(=O)O)CCN(CC(=O)O)CC2)C3)C(=O)O)NC(=O)[C@H](Cc2ccccc2)NC(=O)[C@H](CCC(N)=O)NC(=O)[C@H]([C@@H](C)O)NC(=O)C2CCCN2C(=O)C2CN(C2)C1=O` (stereo partly drawn) [JHDC25, Hex[Cys(3MeBn)-hhy39-Pro-Thr-Gln-Phe-Cys]-Glu-(EDA-hhy02-DOTA)-OH] (Hexanoyl-C[Azetidine3carboxylic][ξP]TQF[ξC]E([Ethylenediamine-X4])-OH; linker 1-7 via mXylylene), for which the Kd was 10 to 100 nM.
